Experimental data reported in patent US6552235B2, “Process for the preparation of cyclohexanol” (Asahi Kasei Kabushiki Kaisha, priority 1999, dated 2003).
Like-named read-outs stand apart in the source and are kept apart here.

Columns and labels:
[1] = Liquid-liquid distribution coefficient of cyclohexene at 120° C. and solvent effect index; type: physicochemical; conditions: for Solvent effect index: distribution coefficient in solvent-free system/in solvent-containing system; for Distribution coefficient of cyclohexene: molar fraction in oil phase/aqueous phase, cyclohexene/cyclohexanol/organic solvent/water 56.7/13.3/30/100 by weight
Procedure: The organic solvent used in the present invention has a solvent effect index (defined below) of not less than 1.5. The solvent effect index in the present invention is defined to be a ratio of a distribution coefficient of cyclohexene in the absence of solvent at 120° C. and a distribution coefficient of cyclohexene in a solvent-containing system at 120° C. (distribution coefficient of cyclohexene in the absence of solvent/distribution coefficient of cyclohexene in a solvent-containing system), and it indicates an effect to make predominate the distribution of cyclohexene into an aqueous solution due to the presence of the organic solvent.
Detailedly, the solvent effect index in the present invention is obtained in the following manner. Cyclohexene/cyclohexanol/organic solvent/water are charged at a weight ratio of 56.7/13.3/30/100, and the distribution coefficient of cyclohexene (molar fraction of cyclohexene in oil phase/molar fraction of cyclohexene in aqueous phase) is obtained from the liquid composition of both phases of the oil phase and the aqueous phase in an equilibrium state kept at 120° C. The ratio of the resulting distribution coefficient of cyclohexene and the distribution coefficient of cyclohexene in a solvent-free system (measured at 120° C. by charging cyclohexene/cyclohexanol/water at a weight ratio of 56.7/13.3/100), namely, the ratio of distribution coefficient in solvent-free system/distribution coefficient in solvent-containing system, is the solvent effect index in the present invention.
Here, the distribution coefficient of cyclohexene is measured by the following method. That is, an oil and water at the above weight ratio are charged in a pressure container under a nitrogen pressure, and sufficiently stirred and mixed at a rising temperature of 120° C., followed by reducing the stirring speed and leaving at rest for a time long enough to reach an equilibrium state. Thereafter, each of the oil phase and the aqueous phase is sampled in a solvent such as 1,4-dioxane, and the compositions of both the oil phase and the aqueous phase are obtained from analysis by gas chromatography and a Karl Fischer moisture meter. Thus, the distribution coefficient of cyclohexene is measured.

[2] = Solvent conversion rate in batch-wise hydration reaction of cyclohexene (H-ZSM-5 zeolite-A); type: physicochemical; conditions: 120° C.; for Solvent convertion rate: H-ZSM-5-A, 20 g solvent
Procedure: The organic solvent used as a reaction solvent in the method of the present invention has a conversion rate of not more than 3% under the hydration reaction conditions of cyclohexene. The conversion rate of the organic solvent in the present invention is a conversion rate in the reaction of the organic solvent per se or the organic solvent with cyclohexene or cyclohexanol per 1 hour of batch reaction at the reaction temperature at which the hydration reaction of cyclohexene is carried out. In industrial working of the present invention, the solvent used for the reaction is separated from the product cyclohexanol and circulated for reuse.
30 g of the resulting H-ZSM-5 zeolite-A catalyst and 81 g of water were charged in a glass autoclave A and heated to 120° C. with stirring under application of a nitrogen pressure of 0.5 MPa. Separately, 61 g of cyclohexene and 20 g of isophorone were charged in a glass autoclave B and heated to 120° C. under application of a nitrogen pressure of 0.6 MPa. Thereafter, the cyclohexene/isophorone mixed liquid was sent under pressure from the glass autoclave B to the glass autoclave A, and the reaction was started. After the reaction for 1 hour, the stirring was stopped, and the oil phase was sampled and analyzed by gas chromatography. At the sampling, the reaction mixture separated to two phases of oil phase and aqueous phase immediately after stopping of stirring. Yield and selectivity of cyclohexanol were as follows.
The hydration reaction of cyclohexene was carried out in the same manner as in Example 1, except that ethylene glycol monophenyl ether, phenethyl alcohol and 3,3,5-trimethylcyclohexanone were respectively used as the reaction solvents. The results of the reactions are shown in Table 1, and characteristics of the organic solvents used in this Example are shown in Table 2.
The reaction was carried out in the same manner as in Example 1, except that benzyl alcohol was used as the solvent. Yield of cyclohexanol after each reaction time was as follows.

[3] = cited from earlier work
[4] = Solvent conversion rate in continuous fixed-bed flowing hydration reaction of cyclohexene; type: physicochemical; conditions: fixed-bed flow; for Solvent conversion rate: 30 wt % solvent, 124-134° C., 2 MPa
Procedure: A continuous fixed-bed flowing reaction test of a cyclohexene hydration reaction was conducted under the following conditions using ethylene glycol monophenyl ether (EGMPE) as a reaction solvent. As a reaction apparatus, a stainless steel reaction vessel of 26.5 mm in internal diameter provided with a heating medium jacket was used. In the upper part of the reaction vessel, there were provided feed openings for water and oil, and in the lower part of the reaction vessel, oil and water in the mixed state were led to a reaction mixture storage tank through a pressure regulating valve, and oil and water were separated from each other in the reaction mixture storage tank. ZSM-5 zeolite (silica/alumina molar ratio=50) manufactured by Engelhard Co., Ltd. with addition of 20 wt % of an alumina binder was extrusion molded to a size of 1/16 inch in external diameter and 5 mm in length, and this was used as the catalyst. The height of the catalyst layer was 240 mm. The continuous reaction was carried out by an oil-water falling parallel flow sealing reaction method under the following conditions.
The oil phase discharged into the reaction mixture storage tank was analyzed by gas chromatography to obtain the results of the reaction. At the time of starting of the reaction, only cyclohexene was fed, and after a lapse of 20 hours from the starting of the reaction, the starting material was changed to a mixed liquid of cyclohexene/ethylene glycol monophenyl ether=70/30 (weight ratio), and thereafter the reaction was continued for 150 hours.

[5] = phenol-containing system, 120° C.; solvent-free system 3818; cited from earlier work

| SMILES | Solvent effect index [1] | Distribution coefficient of cyclohexene [1] | Solvent convertion rate ([2]; 1 hour) [%] | Solubility in water (25° C.) [3] [g/100 ml] | also measured |
| --- | --- | --- | --- | --- | --- |
| CC1CC(=O)CC(C)(C)C1 (centres unmarked) [3,3,5-Trimethylcyclohexanone] | 2.14 | 1929 | 0.00 | 0.80 |  |
| OCCOc1ccccc1 [Ethylene glycol monophenyl ether, ethylene glycol monophenyl ether] | 2.46 | 1681 | 0.70 | 2.70 | Solvent conversion rate ([4]; reaction time 25 Hr): 0.84%; Solvent conversion rate ([4]; reaction time 80 Hr): 0.63%; Solvent conversion rate ([4]; reaction time 150 Hr): 0.42%; conversion rate to ethylene glycol cyclohexylphenyl ether ([4]; under the hydration reaction conditions): less than 1% |
| CC1=CC(=O)CC(C)(C)C1 [Isophorone] | 2.19 | 1884 | 0.00 | 1.2 | change of the solvent in the hydration reaction ([2]; H-ZSM-5 zeolite-A, 1 hour): showed no change; Solubility in water (25° C.) ([3]; listed as IPN): 1.20 g/100 ml |
| OCCc1ccccc1 [Phenethyl alcohol] | 2.24 | 1846 | 0.35 | 2.00 |  |
| OCc1ccccc1 [benzyl alcohol, reference compound] |  |  |  |  | conversion rate of the reaction solvent to dibenzyl ether ([2]; H-ZSM-5 zeolite-A, after 1 hour): 11.4%; conversion rate of the reaction solvent to dibenzyl ether ([2]; H-ZSM-5 zeolite-A, after 2 hours): 16.0% |
| O=C1CCCCC1 [cyclohexanone, reference compound] |  |  |  |  | solubility in water [3]: 8.7% |
| Oc1ccccc1 [phenol] |  |  |  |  | cyclohexene distribution coefficient (concentration in oil phase mol %/aqueous phase mol %) [5]: 680 |
